Experimental data as given in the NIST ThermoML archive (doi:10.1021/je800348s).
± gives the expanded uncertainty stated by the source.

Key:
[1] = 101 kPa, Liquid; for mass density: Vibrating tube method
[2] = xn = mol fraction of the nth substance listed; conditions: 101 kPa, Liquid, x1 = 1; for mass density: Vibrating tube method

| viscosity ([1]; 293.15 K) | mass density ([1]; 293.15 K) | viscosity ([1]; 298.15 K) | mass density ([1]; 298.15 K) | viscosity ([1]; 303.15 K) | mass density ([1]; 303.15 K) | viscosity ([1]; 313.15 K) | mass density ([1]; 313.15 K) | mass density ([2]; 293.15 K) | viscosity ([2]; 293.15 K) | mass density ([2]; 298.15 K) | viscosity ([2]; 298.15 K) | mass density ([2]; 303.15 K) | viscosity ([2]; 303.15 K) | mass density ([2]; 313.15 K) | viscosity ([2]; 313.15 K) | SMILES |
| --- | --- | --- | --- | --- | --- | --- | --- | --- | --- | --- | --- | --- | --- | --- | --- | --- |
| 0.9491 ± 0.024 mPa·s | 730 ± 8 kg/m3 | 0.8434 ± 0.022 mPa·s | 726.4 ± 8 kg/m3 | 0.8172 ± 0.021 mPa·s | 722.5 ± 8 kg/m3 | 0.7851 ± 0.02 mPa·s | 715.4 ± 8 kg/m3 |  |  |  |  |  |  |  |  | CCCCCCCCCC [decane] |
|  |  |  |  |  |  |  |  | 730 ± 8 kg/m3 | 0.9491 ± 0.024 mPa·s | 726.4 ± 8 kg/m3 | 0.8434 ± 0.022 mPa·s | 722.5 ± 8 kg/m3 | 0.8172 ± 0.021 mPa·s | 715.4 ± 8 kg/m3 | 0.7851 ± 0.02 mPa·s | CCCCCCCCCC [decane] + C1C[C@@H]2[C@H]3CC[C@H](C3)[C@@H]2C1 |
| 3.064 ± 0.077 mPa·s | 935.2 ± 8 kg/m3 | 2.74 ± 0.069 mPa·s | 931.4 ± 8 kg/m3 | 2.514 ± 0.063 mPa·s | 927.7 ± 8 kg/m3 | 2.27 ± 0.057 mPa·s | 922.2 ± 8 kg/m3 |  |  |  |  |  |  |  |  | C1C[C@@H]2[C@H]3CC[C@H](C3)[C@@H]2C1 [exo-tetrahydrodicyclopentadiene] |
| 0.5439 ± 0.015 mPa·s | 702.5 ± 8 kg/m3 | 0.5177 ± 0.015 mPa·s | 698.5 ± 8 kg/m3 | 0.4795 ± 0.014 mPa·s | 694.5 ± 8 kg/m3 | 0.4358 ± 0.013 mPa·s | 686.3 ± 8 kg/m3 |  |  |  |  |  |  |  |  | CCCCCCCC [octane] |
|  |  |  |  |  |  |  |  | 702.5 ± 8 kg/m3 | 0.5439 ± 0.015 mPa·s | 698.5 ± 8 kg/m3 | 0.5177 ± 0.015 mPa·s | 694.5 ± 8 kg/m3 | 0.4795 ± 0.014 mPa·s | 686.3 ± 8 kg/m3 | 0.4358 ± 0.013 mPa·s | CCCCCCCC [octane] + C1C[C@@H]2[C@H]3CC[C@H](C3)[C@@H]2C1 |
